{
  "source": "paper PMC13198257",
  "about": "“An aerosolized dual-action autotaxin inhibitor-PPARγ agonist for the treatment of pulmonary fibrosis” (Cell Reports Medicine, 2026)",
  "key": {"[1]": {"tested_on": "human PCLS", "experiment": "Human PCLS with pro-fibrotic cocktail", "assay_type": "cell-based", "conditions": "25 and 50 μΜ", "experimental": "hPCLS were prepared from tumour-free lung tissue obtained during surgical resection from a patient undergoing surgery for pulmonary adenocarcinoma (Subject ID: LB26-0020). The biopsy was provided by the Biobanque CRB-Tumorothèque de Nice, Biobanque CHU de Nice (BB-0033-00025; approved protocol # CSE 2022-EV34), collected after written informed consent, in accordance with the Declaration of Helsinki and applicable French regulations for human biological materials.\nThe lung biopsy was rinsed thoroughly with Hank’s balanced salt solution (HBSS, Sigma-Aldrich) supplemented with antibiotics. The tissue was then infused with a 2.5% low-melting agarose solution prepared in DMEM/F-10 containing antibiotics, maintained at 40°C, and rapidly cooled to solidify the agarose. 8 mm tissue punches were then excised and sectioned into 300 μm-thick slices using the Compresstome VF-300-0Z (Precisionary Instruments). Each hPCLS was transferred into an individual well of a 24-well plate containing 500 μL of culture medium supplemented with 1× antibiotic–antimycotic solution (penicillin, streptomycin, amphotericin B), 50 μg/mL gentamicin, 1× insulin-transferrin-selenium (ITS) supplement, and 0.1% FBS. Slices were incubated at 37°C in a humidified atmosphere with 5% CO2. The culture medium was replaced after several hours.\nFibrosis was induced by a pro-fibrotic cocktail (PFC; 5 ng/mL TGF-β1, […] PDGF-AB, 10 ng/mL TNF-a and 5 μM LPA 18:1), following a well-established protocol.[73] Individual PCLS were first incubated with the PFC for 48 h. After this initial exposure, the medium was renewed and PCLS were treated for an additional 72 h with either PFC alone or PFC supplemented with EL244 (25 μM or 50 μM). Untreated PCLS served as controls."}, "[2]": {"molecular_target": "T1, Autotaxin (Homo sapiens, UniProt Q13822)", "T1 construct": "purchased Sino Biological 11308-H07H", "experiment": "HDX-MS of Autotaxin with and without EL244", "assay_type": "binding", "experimental": "All HDX experiments were performed using a dual head parallel Trajan LEAP automation system (Carrboro, NC, USA).[153] Briefly, 5μL of reconstituted Autotaxin (1.25mg/mL) with and without EL244, was diluted into 100μL of labeling buffer (10mM PBS, 150mM sodium chloride, pD = 7.4 in D2O). pD was determined using pH measurements with a glass electrode and corrected for the isotopic effect.[154] Samples were labeled in quadruplicate for each labeling time (30s, 300s and 3000s) at 25°C. For experiments with bounded Autotaxin, both the protein stock and labeling buffer contained 50μM of the ligand to ensure >95% bound protein during labeling.[155] Afterward, 100 μL of labeled samples were quenched by mixing with equal amounts of precooled quench buffer (100mM glycine, 3M urea, 0.5M TCEP, pH 2.3 in water) at 1°C and held at that temperature for 120s to improve disulfide bond reduction. Non-deuterated controls and initial peptide map samples were prepared identically but using 10mM PBS, 150mM sodium chloride, pH = 7.4 in water as labeling buffer. […] Peptide masses were measured using a Waters SELECT SERIES cyclic IMS QTOF system using positive mode ionization and single pass ion mobility. All HDX experiments were measured using HDMS mode while initial peptide maps used HDMSE with a collision energy ramp of 20-45v.[156] […]"}, "[3]": {"tested_on": "NHLFs", "experiment": "TGF-β-induced normal human lung fibroblasts (NHLFs): fibrotic markers and PPARγ target genes", "assay_type": "cell-based", "conditions": "75 μΜ, TGFβ 10 ng/ml", "experimental": "Normal human lung fibroblasts (NHLFs), clone 832, were isolated from the adjacent healthy tissue of a patient undergoing open lung surgery for cancer at the Department of Pulmonology, Bichat-Claude Bernard Hospital, Paris/France; studies were approved by the Committee for Personal Protection (CPP)—Ile de France 1 (#0911932). The patient provided written consent to the use of his/her sample for research purposes; no compensation was provided. NHLFs were cultured in DMEM supplemented with 10% FBS, 1% penicillin/streptomycin, and 0.1% amphotericin B at 37 °C, 5% CO2 and ≥95% relative humidity.\nFor experiments, NHLFs were seeded in 6-well plates at a density of 2 × 10^5 cells per well. After overnight serum starvation, cells were pre-treated with EL244 or vehicle (concentrations specified in the corresponding figures) for 1 h, followed by stimulation with TGFβ (10 ng/mL) for 24 h.\nCells were washed twice with ice-cold 1× PBS and lysed in RIPA buffer containing 50 mM Tris-HCl (pH 7.4), 1 mM EDTA, 150 mM NaCl, 0.25% (w/v) sodium deoxycholate, 1% (v/v) Triton X-100, 0.1% (w/v) SDS and 1 mM PMSF. Equal amounts of protein extracts (30 μg) were separated into 10% SDS-PAGE gels and subsequently electro-transferred onto nitrocellulose membranes. Membranes were blocked for 1 h at room temperature in 1X TBS-T containing 5% non-fat dry milk. […] Immunoreactive protein bands were detected using ECL."}},
  "data": [
    {"smiles": "O=C1NC(=O)C(Cc2ccc(OCCC3CCN(C(=O)OCc4cc(Cl)cc(Cl)c4)CC3)cc2)S1", "note": "(stereo not shown) [EL244, 3,5-dichlorobenzyl 4-(2-(4-((2,4-dioxothiazolidin-5-yl)methyl)phenoxy)ethyl)piperidine-1-carboxylate]", "values": [
      {"measurement": "Col1a1 and Acta2 mRNA expression", "setting": "[1]", "result": "downregulation"},
      {"measurement": "Development of fibrosis (histology)", "setting": "[1]", "result": "prevented and/or attenuated the development of fibrosis"},
      {"measurement": "PPARγ target gene expression", "setting": "[1]", "result": "upregulated the expression of PPARγ target genes"},
      {"measurement": "Binding site on ATX", "setting": "[2]; HDX-MS, protected region 214–289 mapped on 2XR9", "result": "binds to the hydrophobic pocket and the allosteric tunnel of ATX"},
      {"measurement": "ATX inhibitor type", "setting": "[2]; HDX/MS and MD analysis", "result": "type IV ATX inhibitor"},
      {"measurement": "Col1a1 and Acta2 (aSMA) mRNA and protein", "setting": "[3]", "result": "suppressed"},
      {"measurement": "PPARγ target genes and PPARγ expression", "setting": "[3]", "result": "stimulating the expression of PPARγ target genes"}
    ]}
  ]
}
